Data as given in ChEMBL document CHEMBL5241111, “Non-steroidal anti-inflammatory drugs: recent advances in the use of synthetic COX-2 inhibitors” (RSC Med Chem, 2022).

Molecular target: T1, Prostaglandin G/H synthase 2 (Homo sapiens, UniProt P35354)
T1 sequence (P35354 whole entry): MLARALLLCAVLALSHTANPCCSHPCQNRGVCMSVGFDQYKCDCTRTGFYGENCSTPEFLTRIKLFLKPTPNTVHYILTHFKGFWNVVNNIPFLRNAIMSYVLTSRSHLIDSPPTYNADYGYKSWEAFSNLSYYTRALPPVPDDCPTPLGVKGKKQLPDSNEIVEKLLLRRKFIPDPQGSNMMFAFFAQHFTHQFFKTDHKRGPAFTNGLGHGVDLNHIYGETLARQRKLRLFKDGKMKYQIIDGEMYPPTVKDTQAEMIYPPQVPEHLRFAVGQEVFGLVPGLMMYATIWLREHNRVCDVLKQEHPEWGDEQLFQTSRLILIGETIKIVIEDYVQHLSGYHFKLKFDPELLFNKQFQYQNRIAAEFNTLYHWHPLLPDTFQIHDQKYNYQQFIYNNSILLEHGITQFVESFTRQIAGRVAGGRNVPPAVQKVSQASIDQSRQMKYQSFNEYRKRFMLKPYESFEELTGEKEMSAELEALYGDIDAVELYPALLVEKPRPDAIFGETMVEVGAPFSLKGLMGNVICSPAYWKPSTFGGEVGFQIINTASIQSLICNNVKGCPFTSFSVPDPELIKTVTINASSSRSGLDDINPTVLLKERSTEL
Assay: Inhibition of COX-2 (unknown origin) by colorimetric assay
Conditions: not given

| SMILES | IC50 [nM] |
| --- | --- |
| C=CCn1c(-c2ccc(C)cc2)cs/c1=N\NC(=O)c1cc(NCCCC)c(Oc2ccccc2)c(S(N)(=O)=O)c1 | 1520 |
| C=CCc1ccc(-n2c(-c3cc(NCCCC)c(Oc4ccccc4)c(S(N)(=O)=O)c3)n[nH]c2=S)cc1 | 4590 |
| CCCCNc1cc(-c2n[nH]c(=S)n2-c2ccccc2)cc(S(N)(=O)=O)c1Oc1ccccc1 | 280 |
| CCCCNc1cc(C(=O)n2nc(C)cc2C)cc(S(N)(=O)=O)c1Oc1ccccc1 | 4750 |
| CCCCNc1cc(C(=O)N/N=c2\scc(-c3ccc(Cl)cc3)n2-c2ccccc2)cc(S(N)(=O)=O)c1Oc1ccccc1 | 1520 |
| C=CCn1c(-c2ccc(OC)cc2)cs/c1=N\NC(=O)c1cc(NCCCC)c(Oc2ccccc2)c(S(N)(=O)=O)c1 | 1520 |
| CCCCNc1cc(C(=O)N/N=c2\scc(-c3ccc(C)cc3)n2-c2ccccc2)cc(S(N)(=O)=O)c1Oc1ccccc1 | 1520 |
| CCCCNc1cc(C(=O)N2N=C(C)CC2=O)cc(S(N)(=O)=O)c1Oc1ccccc1 | 5110 |
| CCCCNc1cc(-c2n[nH]c(=S)o2)cc(S(N)(=O)=O)c1Oc1ccccc1 | 5730 |
| CCCCNc1cc(C(=O)N/N=c2\scc(-c3ccc(OC)cc3)n2-c2ccccc2)cc(S(N)(=O)=O)c1Oc1ccccc1 | 1520 |
| CCCCNc1cc(C(=O)N/N=c2\scc(-c3ccc(C)cc3)n2-c2ccc(Br)cc2)cc(S(N)(=O)=O)c1Oc1ccccc1 | 1520 |
| C=CCn1c(-c2ccc(Cl)cc2)cs/c1=N\NC(=O)c1cc(NCCCC)c(Oc2ccccc2)c(S(N)(=O)=O)c1 | 1520 |
| CCCCNc1cc(C(=O)N/N=c2\scc(-c3ccc(OC)cc3)n2-c2ccc(Br)cc2)cc(S(N)(=O)=O)c1Oc1ccccc1 | 1520 |
| CCCCNc1cc(C(=O)N/N=c2\scc(-c3ccc(Cl)cc3)n2-c2ccc(Br)cc2)cc(S(N)(=O)=O)c1Oc1ccccc1 | 1520 |

Molecular target: T1, Prostaglandin G/H synthase 2
Assay: Inhibition of COX-2 (unknown origin)
Conditions: not given

| SMILES | IC50 [nM] |
| --- | --- |
| Cc1c(C(=O)NN)nnn1-c1ccc(S(N)(=O)=O)cc1 | 2920 |
| CC(C)=CC[C@H]1C[C@@H]2C[C@@H]3[C@@H](C[C@]4(C)C(C)(C)OC[C@]34C)C(=O)[C@](C(=O)c3ccccc3)(C1=O)C2(C)C | 5270 |
| CCC(C)C(=O)[C@H]1C(=O)[C@@]2(CC=C(C)C)C[C@H](C[C@H]3[C@@H](C[C@H](C(C)(C)O)C3(C)C)C2=O)C1(C)C (stereo not given in full) | 8320 |

Molecular target: T2, Polyunsaturated fatty acid 5-lipoxygenase (Homo sapiens, UniProt P09917)
T2 sequence (P09917 whole entry): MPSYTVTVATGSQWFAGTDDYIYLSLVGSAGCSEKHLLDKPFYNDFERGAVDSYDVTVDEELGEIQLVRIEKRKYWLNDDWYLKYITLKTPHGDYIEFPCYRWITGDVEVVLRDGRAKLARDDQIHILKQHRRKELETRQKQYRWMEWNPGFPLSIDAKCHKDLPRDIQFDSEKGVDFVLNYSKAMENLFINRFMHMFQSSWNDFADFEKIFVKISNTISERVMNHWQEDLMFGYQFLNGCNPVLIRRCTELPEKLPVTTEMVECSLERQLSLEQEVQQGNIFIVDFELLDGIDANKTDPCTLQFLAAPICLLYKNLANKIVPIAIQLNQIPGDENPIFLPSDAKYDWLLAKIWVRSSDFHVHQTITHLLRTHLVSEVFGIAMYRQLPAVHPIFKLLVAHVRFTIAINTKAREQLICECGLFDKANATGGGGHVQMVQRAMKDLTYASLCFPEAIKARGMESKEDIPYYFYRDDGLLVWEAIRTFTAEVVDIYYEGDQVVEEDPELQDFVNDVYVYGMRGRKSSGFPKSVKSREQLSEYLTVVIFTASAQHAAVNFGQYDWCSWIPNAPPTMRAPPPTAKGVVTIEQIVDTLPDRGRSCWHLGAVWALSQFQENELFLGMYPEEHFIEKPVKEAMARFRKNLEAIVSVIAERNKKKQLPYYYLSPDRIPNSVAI
Assay: Inhibition of 5-LOX (unknown origin) using linoleic acid as substrate preincubated for 5 mins followed by substrate addition by absorbance based analysis
Conditions: not given

| SMILES | IC50 [nM] |
| --- | --- |
| O=C(c1cccs1)c1sc(N(c2ccccc2)c2ccccc2)nc1-c1ccc(F)cc1 | 380 |
| O=C(c1cccs1)c1sc(N(c2ccccc2)c2ccccc2)nc1-c1ccc([N+](=O)[O-])cc1 | 380 |
| N#Cc1ccc(-c2cs/c(=N\C(=O)c3cccs3)n2-c2ccccc2)cc1 | 380 |
| O=C(/N=c1/scc(-c2ccccc2)n1-c1ccccc1)c1cccs1 | 380 |
| O=C(/N=c1\scc(-c2ccc(C(F)(F)F)cc2)n1-c1ccccc1)c1cccs1 | 380 |
| O=C(c1cccs1)c1sc(N(c2ccccc2)c2ccccc2)nc1-c1ccccc1 | 380 |
| O=C(/N=c1\scc(-c2ccc(F)cc2)n1-c1ccccc1)c1cccs1 | 380 |
| Cc1ccc(-c2nc(N(c3ccccc3)c3ccccc3)sc2C(=O)c2cccs2)cc1 | 380 |
| N#Cc1ccc(-c2nc(N3CCOCC3)sc2C(=O)c2cccs2)cc1 | 380 |
| Cc1ccc(-c2nc(N3CCOCC3)sc2C(=O)c2cccs2)cc1 | 380 |
| O=C(c1cccs1)c1sc(N2CCOCC2)nc1-c1ccc([N+](=O)[O-])cc1 | 380 |
| O=C(c1cccs1)c1sc(N2CCOCC2)nc1-c1ccccc1 | 380 |
| O=C(/N=c1\scc(-c2ccc([N+](=O)[O-])cc2)n1-c1ccccc1)c1cccs1 | 380 |
| O=C(c1cccs1)c1sc(N(c2ccccc2)c2ccccc2)nc1-c1ccc(C(F)(F)F)cc1 | 380 |
| N#Cc1ccc(-c2nc(N(c3ccccc3)c3ccccc3)sc2C(=O)c2cccs2)cc1 | 380 |
| O=C(c1cccs1)c1sc(N2CCOCC2)nc1-c1ccc(C(F)(F)F)cc1 | 380 |
| O=C(c1cccs1)c1sc(Nc2ccccc2)nc1-c1ccc(F)cc1 | 380 |
| O=C(c1cccs1)c1sc(N2CCOCC2)nc1-c1ccc(F)cc1 | 380 |
| Cc1ccc(-c2cs/c(=N\C(=O)c3cccs3)n2-c2ccccc2)cc1 | 380 |

Molecular target: T3, Polyunsaturated fatty acid lipoxygenase ALOX15 (Homo sapiens, UniProt P16050)
T3 sequence (P16050 whole entry): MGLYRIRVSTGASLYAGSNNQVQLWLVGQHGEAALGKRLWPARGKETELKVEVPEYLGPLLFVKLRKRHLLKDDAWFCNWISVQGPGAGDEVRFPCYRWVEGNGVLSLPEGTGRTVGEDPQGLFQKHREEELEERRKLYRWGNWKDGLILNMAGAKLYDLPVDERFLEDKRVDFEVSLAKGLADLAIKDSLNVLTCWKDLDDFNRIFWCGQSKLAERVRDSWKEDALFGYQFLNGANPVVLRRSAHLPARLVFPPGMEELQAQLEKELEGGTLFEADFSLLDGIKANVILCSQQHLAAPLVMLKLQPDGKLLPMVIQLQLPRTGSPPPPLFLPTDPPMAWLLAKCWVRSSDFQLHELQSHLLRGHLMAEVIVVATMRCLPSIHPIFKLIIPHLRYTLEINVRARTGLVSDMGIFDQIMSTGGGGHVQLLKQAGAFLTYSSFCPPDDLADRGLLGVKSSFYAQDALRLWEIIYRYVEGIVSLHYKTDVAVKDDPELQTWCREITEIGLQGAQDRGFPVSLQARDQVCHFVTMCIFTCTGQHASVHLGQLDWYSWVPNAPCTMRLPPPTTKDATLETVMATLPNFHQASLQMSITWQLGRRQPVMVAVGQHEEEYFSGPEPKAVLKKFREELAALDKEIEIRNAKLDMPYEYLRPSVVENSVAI
Assay: Inhibition of 15-LOX (unknown origin)
Conditions: not given

| SMILES | IC50 [nM] |
| --- | --- |
| Cc1nnc(/N=C2\NC(=O)/C(=C/c3cccnc3)S2)s1 | 3360 |
| Cc1nnc(/N=C2\NC(=O)/C(=C/c3ccc(F)cc3)S2)s1 | 3110 |
| O=C1CS/C(=N/c2nnc(-c3ccccc3O)s2)N1 | 2540 |
| CC(c1cc2ccccc2s1)N(O)C(N)=O (stereo not given) [ZILEUTON] | 15600 |
| Cc1nnc(/N=C2\NC(=O)/C(=C/C3CCCCC3)S2)s1 | 3360 |
| O=C1CS/C(=N/c2nnc(-c3ccc(O)cc3)s2)N1 | 2540 |
| Cc1nnc(/N=C2\NC(=O)/C(=C/c3ccsc3)S2)s1 | 3360 |
| Cc1nnc(/N=C2\NC(=O)CS2)s1 | 2540 |
| Cc1nnc(/N=C2\NC(=O)/C(=C/c3ccc(Br)cc3)S2)s1 | 3110 |
| Cc1nnc(/N=C2\NC(=O)/C(=C/c3ccc(O)cc3)S2)s1 | 3110 |
| Cc1nnc(/N=C2\NC(=O)/C(=C/c3ccc(Cl)cc3)S2)s1 | 3110 |
| Cc1nnc(/N=C2\NC(=O)/C(=C/c3ccc(C(C)C)cc3)S2)s1 | 3110 |
| Cc1ccc(-c2nnc(/N=C3\NC(=O)CS3)s2)cc1 | 2540 |
| O=C1CS/C(=N/c2nnc(-c3ccc(Br)cc3)s2)N1 | 2540 |
| COc1ccc(/C=C2\S/C(=N/c3nnc(C)s3)NC2=O)cc1 | 3110 |
| Cc1nnc(/N=C2\NC(=O)/C(=C/c3ccc(N(C)C)cc3)S2)s1 | 3110 |
| Cc1nnc(/N=C2\NC(=O)/C(=C/C=C/c3ccccc3)S2)s1 | 3360 |

Molecular target: T4, Prostaglandin G/H synthase 2 (Homo sapiens) (UniProt P35354)
T4 sequence (whole entry): T1 sequence (P35354 whole entry)
Conditions: dose 2-10 nM, time 1.0 min

| SMILES | inhibition [%] |
| --- | --- |
| CN1C/C(=C\c2ccc(F)s2)C2=NN(c3ccccc3)C(c3ccc(F)s3)C2C1 (stereo not given) | < 98 |
| Cc1sc(/C=C2\CN(C)CC3C2=NN(c2ccccc2)C3c2cc(Br)c(C)s2)cc1Br (stereo not given) | < 98 |
| Cc1csc(/C=C2\CN(C)CC3C2=NN(c2ccccc2)C3c2cc(C)cs2)c1 (stereo not given) | < 98 |
| CN1C/C(=C\c2ccc(Br)s2)C2=NN(c3ccccc3)C(c3ccc(Br)s3)C2C1 (stereo not given) | < 98 |
| CN1C/C(=C\c2ccc([N+](=O)[O-])s2)C2=NN(c3ccccc3)C(c3ccc([N+](=O)[O-])s3)C2C1 (stereo not given) | < 98 |
| Cc1ccc(/C=C2\CN(C)CC3C2=NN(c2ccccc2)C3c2ccc(C)s2)s1 (stereo not given) | < 98 |
| CN1C/C(=C\c2cccs2)C2=NN(c3ccccc3)C(c3cccs3)C2C1 (stereo not given) | < 98 |
| Cc1sc(/C=C2\CN(C)CC3C2=NN(c2ccccc2)C3c2cc(F)c(C)s2)cc1F (stereo not given) | < 98 |
| CN1C/C(=C\c2ccc(Cl)s2)C2=NN(c3ccccc3)C(c3ccc(Cl)s3)C2C1 (stereo not given) | < 98 |
| CN1C/C(=C\c2ccc(O)s2)C2=NN(c3ccccc3)C(c3ccc(O)s3)C2C1 (stereo not given) | < 98 |
| CCc1ccc(/C=C2\CN(C)CC3C2=NN(c2ccccc2)C3c2ccc(CC)s2)s1 (stereo not given) | < 98 |

Molecular target: COX-1/COX-2 (Homo sapiens) (UniProt P35354+P23219)
Assay: Selectivity index, ratio of IC50 for inhibition of COX-1 (unknown origin) to IC50 for inhibition of COX-2 (unknown origin)
Format: protein assay
Conditions: not given

| SMILES | Ratio IC50 |
| --- | --- |
| Cc1c(C(=O)NN)nnn1-c1ccc(S(N)(=O)=O)cc1 | 1.95 |
